Assays:
Assay type in all cases: cell-based
OR2W1 = target: T1, OR2W1 (Homo sapiens, UniProt Q9Y3N9); assay: Luciferase reporter gene assay, OR2W1 expressed in HEK293 cells; conditions: for Inhibition ratio of OR2W1 response: response to hexanoic acid, test substance added together with hexanoic acid, HEK293
T1 construct: expressed in transfected cells; host or cells: HEK293
T1 sequence (Q9Y3N9 1-320): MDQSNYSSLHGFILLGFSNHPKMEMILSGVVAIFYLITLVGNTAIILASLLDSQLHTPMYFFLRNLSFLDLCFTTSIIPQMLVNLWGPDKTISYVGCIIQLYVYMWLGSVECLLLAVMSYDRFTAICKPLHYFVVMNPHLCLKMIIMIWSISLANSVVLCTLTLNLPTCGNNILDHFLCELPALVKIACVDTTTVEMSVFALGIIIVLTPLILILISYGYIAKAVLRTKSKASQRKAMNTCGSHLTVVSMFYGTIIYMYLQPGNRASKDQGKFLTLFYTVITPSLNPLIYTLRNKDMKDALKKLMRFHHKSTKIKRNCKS
Method: (§1) Cloning of human olfactory receptors was performed based on the sequence information registered in GenBank, through PCR with human genomic DNA female (G1521: Promega) as a template. Each of the genes amplified through PCR was inserted into a pENTR vector (Invitrogen) according to an instruction manual. Then, the gene-inserted vector was digested with NotI and AscI, and the obtained fragments were inserted into NotI and AscI sites located downstream of the Flag-Rho tag sequence in the pME18S vector.
(§2) Each of the 350 types of human olfactory receptors was expressed in HEK293 cells. A reaction solution having a composition shown in Table 2 was prepared on a clean bench, and left to stand for 15 minutes. The solution was dispensed to each well of a 96-well plate (BD). Subsequently, […] cells (100 μL, 3×10^5 cells/cm^2) were seeded in each well and cultured for 24 hours in an incubator at 37° C. and under 5% CO2 conditions.
(§3) The olfactory receptor expressed in HEK293 cell was conjugated with cell-intrinsic Gas to activate adenylate cyclase, and thereby the level of intracellular cAMP was increased. For the measurement of the response to odor in this study, the luciferase reporter gene assay was used, in which an increase in the amount of intracellular cAMP was monitored by using the emission value originating from firefly luciferase gene (fluc2P-CRE-hygro) as an indicator. Furthermore, a gene product obtained by fusing renilla luciferase gene in the downstream of CMV promoter (hRluc-CMV) was simultaneously introduced, and this was used as an internal standard for correcting an error in the transgenesis efficiency or the number of cells. The medium was removed from the culture prepared in the above-described section 3) by using a Pipetman, and 75 μl of a solution containing an odor substance (1 mM hexanoic acid or 300 μM nonanoic acid) prepared in CD293 medium (Invitrogen) was added thereto. The cells were cultured for 4 hours in a CO2 incubator, and the luciferase gene was sufficiently expressed in the cells. For the measurement of luciferase activity, the measurement was carried out by using a Dual-Glo™ luciferase assay system (Promega) according to the operation manual of the product. A value calculated by dividing the emission value, derived from a firefly luciferase induced by the stimulation with an odor substance, by the emission value in cells that were not-stimulated with an odor substance, was designated as a fold increase, and used as an index of response intensity.
(§4) OR2W1, OR10A6, OR51E1, OR51I2, and OR51L1 were respectively expressed in HEK293 cells by the same method as that used in Example 1, and a luciferase assay was carried out. In the luciferase assay, hexanoic acid was used as the odorous substance, and test substances were added together with hexanoic acid. The response of the olfactory receptors to hexanoic acid was measured, and a decrease in the receptor response to the addition of test substances was evaluated.
(§5) The inhibition ratios of the receptor response to test substances were calculated as follows. The emission value (Y) obtained from the cells in which the same receptors were introduced but no odor stimulation was conducted, was subtracted from the emission value derived from firefly luciferase (X) induced by odor stimulation with hexanoic acid alone. Similarly, the emission value (Y) obtained from the cells in which no odor stimulation was conducted, was subtracted from the emission value (Z) caused by stimulation with a mixture of hexanoic acid and a test substance. By the following calculation formula, the inhibitory activity of the test substance to receptor response was calculated based on the increment of the emission value (X−Y) caused by stimulation of hexanoic acid alone. Multiple independent experiments were performed in duplicate, and the average of each experiment was obtained. Inhibition ratio (%)={1−(Z−Y)/(X−Y)}×100 […]

OR51E1 = target: T2, OR51E1 (Homo sapiens, UniProt Q8TCB6); assay: Luciferase reporter gene assay, OR51E1 expressed in HEK293 cells; conditions: for Inhibition ratio of OR51E1 response: response to hexanoic acid, test substance added together with hexanoic acid, HEK293
T2 construct: expressed in transfected cells; host or cells: HEK293
T2 sequence (Q8TCB6 1-318): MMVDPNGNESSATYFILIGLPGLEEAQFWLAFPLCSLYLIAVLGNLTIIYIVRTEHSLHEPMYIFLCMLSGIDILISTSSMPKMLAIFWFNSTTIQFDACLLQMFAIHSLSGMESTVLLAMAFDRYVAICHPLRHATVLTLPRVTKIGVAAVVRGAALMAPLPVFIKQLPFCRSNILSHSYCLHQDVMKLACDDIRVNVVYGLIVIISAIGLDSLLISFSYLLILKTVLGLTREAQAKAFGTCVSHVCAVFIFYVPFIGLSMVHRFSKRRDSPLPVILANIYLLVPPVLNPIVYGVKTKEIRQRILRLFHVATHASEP
Method: as §1, §2, §3, §4, §5

OR51L1 = target: T3, OR51L1 (Homo sapiens, UniProt Q8NGJ5); assay: Luciferase reporter gene assay, OR51L1 expressed in HEK293 cells; conditions: for Inhibition ratio of OR51L1 response: response to hexanoic acid, test substance added together with hexanoic acid, HEK293
T3 construct: expressed in transfected cells; host or cells: HEK293
T3 sequence (Q8NGJ5 1-315): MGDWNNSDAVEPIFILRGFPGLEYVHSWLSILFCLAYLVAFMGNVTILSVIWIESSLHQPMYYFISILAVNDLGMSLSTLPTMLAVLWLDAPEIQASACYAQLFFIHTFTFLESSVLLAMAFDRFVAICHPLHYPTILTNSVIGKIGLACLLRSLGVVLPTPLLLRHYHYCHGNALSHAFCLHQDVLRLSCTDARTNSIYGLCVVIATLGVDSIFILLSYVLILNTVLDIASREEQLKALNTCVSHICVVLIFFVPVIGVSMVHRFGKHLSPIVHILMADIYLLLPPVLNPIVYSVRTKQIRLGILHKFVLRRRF
Method: as §1, §2, §3, §4, §5

[1] = 1 mM hexanoic acid, test substance 3, 10, 30, 100, 300 μM (FIG. 4)

Inhibition of OR2W1 response to hexanoic acid (in words) (OR2W1; [1]) | Inhibition of OR51E1 response to hexanoic acid (in words) (OR51E1; [1]) | Inhibition of OR51L1 response to hexanoic acid (in words) (OR51L1; [1]) | Compound | Inhibition ratio of OR2W1 response (OR2W1) | Inhibition ratio of OR51E1 response (OR51E1) | Inhibition ratio of OR51L1 response (OR51L1)
in a concentration-dependent manner | in a concentration-dependent manner | in a concentration-dependent manner | CC(C)c1cccc(C(C)CC=O)c1 (stereo not drawn) [Florhydral, 3-(3-isopropylphenyl)-butyraldehyde] | 1 (Inhibition ratio: 50% or higher) | 1 (Inhibition ratio: 50% or higher) | 1 (Inhibition ratio: 50% or higher)
– | – | – | 2,4,6-trimethyl-3-cyclohexene-1-carboxyaldehyde, 3,5,6-trimethyl-3-cyclohexene-1-carboxyaldehyde [Isocyclocitral] | 1 (Inhibition ratio: 50% or higher) | 1 (Inhibition ratio: 50% or higher) | 1 (Inhibition ratio: 50% or higher)

Reference: patent US9526680B2, “Method for searching for malodor control agent, malodor control agent, and malodor control method” (Kao Corporation, priority 2010, dated 2016)
